Values joined by “and” are separate entries in the source; they are usually repeats but may differ in a detail not shown here. Identical values can stand only once.

2 molecules from patent US20060257493A1, “Nanoparticulate delivery systems for treating multi-drug resistance” (priority 2005, published 2006) can be followed below.

In data set [1] the test system is SKOV3 cells (wildtype, drug sensitive human ovarian cancer cell line). Nature of the data set: In-vitro cytotoxicity, MTS (formazan) assay, 6-day treatment. The class given is cell-based. Particulars: 6 days. The method, then:
(§1) In in-vitro cytotoxicity studies, the wildtype (drug sensitive (DS)) human ovarian cancer cell line SKOV3 was maintained in culture alongside an SKOV3TR subculture that was selected for multi-drug resistance in the presence of increasing concentrations of PTX. For cytotoxicity studies, 96-well plates were prepared with each cell type seeded at 5000 cells/well. The DS and MDR cells were subjected to dose-response studies against PTX, CER and PTX combined with CER, delivered as free drugs in solution or delivered in PEO-PCL nanoparticles. All studies were performed alongside a negative control (cell growth medium), a positive control (polyethyleneimine, PEI), and proper vehicle controls. Since PTX is a cell-cycle dependant chemotherapeutic, all treatments were left to proceed undisturbed for 6 days, allowing ample time for all cells to enter mitosis. Resulting cell death/viability was measured by the MTS (formazan) assay.

In data set [2] the test system is SKOV3TR cells (multi-drug resistant, PTX-selected subculture of SKOV3). Nature of the data set: cells. It counts as cell-based, human. The protocol: as §1

The viability is the share of living cells, or the viability signal relative to a control. A word on the IC50: it is the point on the concentration scale where inhibition reaches its midpoint. As to `CC(=O)O[C@H]1C(=O)[C@@]2(C)[C@H]([C@H](OC(=O)c3ccccc3)[C@]3(O)C[C@H](OC(=O)[C@H](O)[C@@H](NC(=O)c4ccccc4)c4ccccc4)C(C)=C1C3(C)C)[C@]1(OC(C)=O)CO[C@@H]1C[C@@H]2O` [PTX, Paclitaxel], the viability at 0.001 µM in data set [1] (Homo sapiens, SK-OV-3, 144 h, SKOV3, 1 nM PTX in solution, read-out: percent cell viability (cells survived)) was determined as 76 ± 5.92%. The viability at 0.1 µM turned out to be 16.4 ± 0.41% in data set [1] (Homo sapiens, SK-OV-3, 144 h, SKOV3, 100 nM PTX in solution, read-out: percent cell viability (cells survived)) and 100 ± 5.78% in data set [2] (Homo sapiens, 144 h, 100 nM PTX in solution, 6 days, read-out: percent cell viability). Further, in data set [1] (Homo sapiens, SK-OV-3, 144 h, SKOV3, free drug in solution, read-out: IC50 of drug sensitive (SKOV3) cells to PTX in solution), the IC50 is about 5 nM. In data set [2] (10 nM PTX), the “percent of MDR cells survived” value turned out to be 100%. Further, in data set [2] (1 μM PTX in solution, 6 days), the percent cell viability was determined as 65.6±2.2%. The viability at 1 µM in data set [2] (Homo sapiens, 144 h, 1 μM PTX in solution, 6 days, read-out: percent cell viability) came to 65.7 ± 2.16%.

In the case of `CCCCCCCCCCCCC/C=C/[C@@H](O)[C@H](CO)NC(=O)CCCCC` [CER, C6-ceramide], the percent cell viability is 75.08±7.86% in data set [1] (SKOV3, CER alone 10 μM in solution, p<0.05); 91.18±7.61% and 91.2±7.6% in data set [2] (CER alone 20 μM in solution, 6 days).
